In ChEMBL document CHEMBL3817828, “Design, synthesis and evaluation of novel tetrahydrothieno[3,2-c]pyridine derivatives as potent smoothened antagonists” (Medchemcomm, 2016):

What was measured:
Protein smoothened = Protein smoothened (Homo sapiens, UniProt Q99835); assay: Displacement of BODIPY-cyclopamine from human Smo expressed in HEK293 cells incubated for 3 hrs by fluorescence competitive displacement assay; assay type: cell-based
[1] = Inhibition of Hh receptor (unknown origin) expressed in SAG-stimulated mouse NIH3T3 cells incubated for 24 hrs by Gli-luciferase reporter gene assay; assay type: cell-based; details: NIH3T3, 24 h

Sequence of Protein smoothened (Q99835 whole entry): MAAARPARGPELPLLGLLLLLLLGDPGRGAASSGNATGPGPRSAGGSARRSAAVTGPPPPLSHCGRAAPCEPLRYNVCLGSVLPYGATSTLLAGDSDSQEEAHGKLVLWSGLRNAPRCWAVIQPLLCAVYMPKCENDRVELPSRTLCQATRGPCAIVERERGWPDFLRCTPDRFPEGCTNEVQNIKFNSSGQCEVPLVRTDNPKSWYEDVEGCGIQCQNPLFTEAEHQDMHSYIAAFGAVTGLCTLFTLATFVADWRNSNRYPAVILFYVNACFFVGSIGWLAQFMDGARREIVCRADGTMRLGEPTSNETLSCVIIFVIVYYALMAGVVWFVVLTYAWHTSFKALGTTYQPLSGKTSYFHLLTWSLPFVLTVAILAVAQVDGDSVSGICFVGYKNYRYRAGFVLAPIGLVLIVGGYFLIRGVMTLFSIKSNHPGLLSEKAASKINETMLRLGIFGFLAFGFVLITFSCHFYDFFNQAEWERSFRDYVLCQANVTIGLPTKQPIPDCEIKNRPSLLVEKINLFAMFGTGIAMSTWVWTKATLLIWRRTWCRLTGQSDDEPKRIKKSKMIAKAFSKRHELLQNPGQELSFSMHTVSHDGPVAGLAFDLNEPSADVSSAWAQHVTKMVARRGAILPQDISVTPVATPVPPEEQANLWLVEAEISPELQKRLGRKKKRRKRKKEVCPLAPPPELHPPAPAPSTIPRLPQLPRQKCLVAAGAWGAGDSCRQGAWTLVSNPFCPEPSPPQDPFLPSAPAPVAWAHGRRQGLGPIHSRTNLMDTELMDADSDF

| IC50 (Protein smoothened) [nM] | IC50 [1] [nM] | Compound |
| --- | --- | --- |
| 315 | 220 | Cn1c(-c2cc(N3CCc4sc(C(=O)N5CCCC5)cc4C3)ccc2Cl)nc2ccccc21 |
|  | 340 | Cn1c(-c2cccc(N3CCc4sc(C(=O)N5CCN(c6ccccn6)CC5)cc4C3)c2)nc2ccccc21 |
| 326 | 170 | CN1CCN(C(=O)c2cc3c(s2)CCN(c2cccc(-c4nc5ccccc5n4C)c2)C3)CC1 |
| 217 | 240 | Cn1c(-c2cc(N3CCc4sc(C(=O)N5CCN(S(C)(=O)=O)CC5)cc4C3)ccc2Cl)nc2ccccc21 |
| 92 | 90 | Cn1c(-c2cc(N3CCc4sc(C(=O)N5CCN(c6ncccn6)CC5)cc4C3)ccc2Cl)nc2ccccc21 |
|  | 380 | Cn1c(-c2cccc(N3CCc4sc(C(=O)N5CCN(c6cccc(Cl)c6)CC5)cc4C3)c2)nc2ccccc21 |
|  | 760 | Cn1c(-c2cccc(N3CCc4sc(C(=O)N5CCN(c6ccccc6F)CC5)cc4C3)c2)nc2ccccc21 |
| 192 | 190 | Cn1c(-c2cc(N3CCc4sc(C(=O)N5CCC(O)CC5)cc4C3)ccc2Cl)nc2ccccc21 |
|  | 1320 | Cn1c(-c2cccc(N3CCc4sc(C(=O)N5CCN(c6ccccc6)CC5)cc4C3)c2)nc2ccccc21 |
| 456 | 270 | Cn1c(-c2cccc(N3CCc4sc(C(=O)N5CCN(c6ccc(Cl)c(Cl)c6)CC5)cc4C3)c2)nc2ccccc21 |
| 213 | 160 | Cn1c(-c2cc(N3CCc4sc(C(=O)N5CCN(c6ccc(Cl)c(Cl)c6)CC5)cc4C3)ccc2Cl)nc2ccccc21 |
| 18 | 60 | Cn1c(-c2cc(N3CCc4sc(C(=O)N5CCOCC5)cc4C3)ccc2Cl)nc2ccccc21 |
| 135 | 130 | CN1CCN(C(=O)c2cc3c(s2)CCN(c2ccc(Cl)c(-c4nc5ccccc5n4C)c2)C3)CC1 |
| 237 | 150 | Cn1c(-c2cccc(N3CCc4sc(C(=O)N5CCN(c6ncccn6)CC5)cc4C3)c2)nc2ccccc21 |
|  | 370 | CC(=O)N1CCN(C(=O)c2cc3c(s2)CCN(c2cccc(-c4nc5ccccc5n4C)c2)C3)CC1 |
| 56 | 140 | Cn1c(-c2cc(N3CCc4sc(C(=O)Nc5cccnc5)cc4C3)ccc2Cl)nc2ccccc21 |
|  | 320 | Cn1c(-c2cccc(N3CCc4sc(C(=O)N5CCN(c6ccc(F)cc6)CC5)cc4C3)c2)nc2ccccc21 |
|  | 350 | CCN1CCN(C(=O)c2cc3c(s2)CCN(c2cccc(-c4nc5ccccc5n4C)c2)C3)CC1 |
|  | 1260 | COc1ccc(N2CCN(C(=O)c3cc4c(s3)CCN(c3cccc(-c5nc6ccccc6n5C)c3)C4)CC2)cc1 |
|  | 2350 | COc1ccccc1N1CCN(C(=O)c2cc3c(s2)CCN(c2cccc(-c4nc5ccccc5n4C)c2)C3)CC1 |

Further lines, the compound ahead of its results:

| Compound | IC50 (Protein smoothened) [nM] | IC50 [1] [nM] |
| --- | --- | --- |
| Cn1c(-c2cccc(N3CCc4sc(C(=O)Nc5ccc(F)c(F)c5)cc4C3)c2)nc2ccccc21 |  | 270 |
| CNC(=O)c1cc2c(s1)CCN(c1cccc(-c3nc4ccccc4n3C)c1)C2 |  | 1410 |
| CN(C)C(=O)c1cc2c(s1)CCN(c1cccc(-c3nc4ccccc4n3C)c1)C2 |  | 1560 |
| Cn1c(-c2cccc(N3CCc4sc(C(=O)Nc5ccccc5)cc4C3)c2)nc2ccccc21 |  | 850 |
| CS(=O)(=O)c1ccc(C(=O)Nc2ccc(Cl)c(-c3ccccn3)c2)c(Cl)c1 [VISMODEGIB] |  | 25 |
| Cn1c(-c2cccc(N3CCc4sc(C(=O)N5CCCC5)cc4C3)c2)nc2ccccc21 | 352 | 260 |
| CC(C)CNC(=O)c1cc2c(s1)CCN(c1cccc(-c3nc4ccccc4n3C)c1)C2 |  | 1720 |
| Cc1ccc(NC(=O)c2cc3c(s2)CCN(c2cccc(-c4nc5ccccc5n4C)c2)C3)cc1 |  | 1630 |
| Cn1c(-c2cccc(N3CCc4sc(C(=O)N5CCN(C(c6ccccc6)c6ccccc6)CC5)cc4C3)c2)nc2ccccc21 |  | > 15000 |
| CC1CCCCN1C(=O)c1cc2c(s1)CCN(c1cccc(-c3nc4ccccc4n3C)c1)C2 (centres undefined) |  | 330 |
| COc1cccc(NC(=O)c2cc3c(s2)CCN(c2cccc(-c4nc5ccccc5n4C)c2)C3)c1 |  | 660 |
| Cn1c(-c2cccc(N3CCc4sc(C(=O)Nc5ccc(Br)cc5)cc4C3)c2)nc2ccccc21 |  | 450 |
| Cn1c(-c2cccc(N3CCc4sc(C(=O)Nc5ccc(F)c(Br)c5)cc4C3)c2)nc2ccccc21 |  | 350 |
| Cc1ccc(NC(=O)c2cc3c(s2)CCN(c2cccc(-c4nc5ccccc5n4C)c2)C3)cc1Cl |  | 310 |
| Cn1c(-c2cccc(N3CCc4sc(C(=O)N5CCN(C(=O)OC(C)(C)C)CC5)cc4C3)c2)nc2ccccc21 |  | 2080 |
| CCN(CC)C(=O)c1cc2c(s1)CCN(c1cccc(-c3nc4ccccc4n3C)c1)C2 |  | 1340 |
| Cn1c(-c2cccc(N3CCc4sc(C(=O)N5CCN(S(C)(=O)=O)CC5)cc4C3)c2)nc2ccccc21 | 373 | 220 |
| Cn1c(-c2cccc(N3CCc4sc(C(=O)N5CCOCC5)cc4C3)c2)nc2ccccc21 | 294 | 210 |
| Cn1c(-c2cccc(N3CCc4sc(C(=O)N5CCN(C(=O)c6ccco6)CC5)cc4C3)c2)nc2ccccc21 |  | 490 |
| Cn1c(-c2cccc(N3CCc4sc(C(=O)Nc5cccnc5)cc4C3)c2)nc2ccccc21 | 261 | 200 |
| Cn1c(-c2cccc(N3CCc4sc(C(=O)N5CCC(O)CC5)cc4C3)c2)nc2ccccc21 | 431 | 280 |
| Cn1c(-c2cccc(N3CCc4sc(C(=O)Nc5ccccc5F)cc4C3)c2)nc2ccccc21 |  | 360 |
| Cn1c(-c2cccc(N3CCc4sc(C(=O)N5CCN(c6cccc(C(F)(F)F)c6)CC5)cc4C3)c2)nc2ccccc21 |  | 1760 |
